Experimental data from PMC10467532, “Design, synthesis, and biological evaluation of thiazole/thiadiazole carboxamide scaffold-based derivatives as potential c-Met kinase inhibitors for cancer treatment” (Journal of Enzyme Inhibition and Medicinal Chemistry, 2023).

Legend:
[1] = target: T1, c-Met (Homo sapiens, UniProt P08581); assay: In vitro c-Met enzymatic assay (HTRF); type: biochemical; conditions: HTRF assay; mean ± SD, triplicate; read-out: IC50 against c-Met
T1 construct: purchased Invitrogen (Waltham, MA)
Experimental: Inhibition of target compounds on c-Met kinase activity was measured by using the homogeneous time-resolved fluorescence (HTRF) assay.
The tyrosine kinases inhibitory activities of target compounds were evaluated in 384-well microtiter plates using purified kinases purchased from Invitrogen (Waltham, MA) by homogeneous time-resolved fluorescence (HTRF) assay. The HTRF KinEASE TK kit was performed according to the instructions. After the kinases and test compounds were incubated at 25–30 °C for 5 min, the kinase reactions were initiated by addition of 39 μL of kinase reaction buffer solution and incubated at 25–30 °C for 30 min. The reactions were quenched by addition 10 µL mixed detection solution. […] The inhibition rate (%) was calculated using the following equation: inhibition rate = [(activity of enzyme with tested compound – min)/(max – min)] × 100 (max: the enzyme activity in the presence of enzyme, substrates and cofactors; min: the enzyme activity in the presence of substrates, cofactors and in the absence of enzyme). IC50 value was calculated from the inhibition curve using GraphPad Prism 5.0 software (La Jolla, CA).

[2] = tested on: A549; assay: MTT antiproliferative assay, A549; conditions: Homo sapiens, A549, 48 h, read-out: IC50 A549
Experimental: (§1) MTT assay was used to determine the cytotoxic activity of target compounds against different cell lines. […] Then, the cells were treated with five doses of test compounds (pre-dissolved in DMSO), and 0.1% DMSO was used as a negative control. […] The results expressed as IC50 were the average of three determinations calculated by using the Bacus Laboratories Incorporated Slide Scanner (Bliss) software.

[3] = tested on: HT-29; assay: MTT antiproliferative assay, HT-29; conditions: Homo sapiens, HT-29, 48 h, read-out: IC50 HT-29
Experimental: as §1

[4] = tested on: MKN-45; assay: MTT antiproliferative assay, MKN-45; conditions: Homo sapiens, MKN-45, 48 h, read-out: IC50 MKN-45
Experimental: as §1

[5] = tested on: MDA-MB-231; assay: MTT antiproliferative assay, MDA-MB-231; conditions: Homo sapiens, MDA-MB-231, 48 h, read-out: IC50 MDA-MB-231
Experimental: as §1

[6] = tested on: FHC; assay: MTT cytotoxicity assay, normal FHC cells; conditions: Homo sapiens, 48 h, read-out: IC50 FHC
Experimental: as §1

[7] = tested on: HUVEC; assay: MTT cytotoxicity assay, normal HUVEC cells; conditions: Homo sapiens, 48 h, read-out: IC50 HUVEC
Experimental: as §1

T1 sequence (P08581 25-1390): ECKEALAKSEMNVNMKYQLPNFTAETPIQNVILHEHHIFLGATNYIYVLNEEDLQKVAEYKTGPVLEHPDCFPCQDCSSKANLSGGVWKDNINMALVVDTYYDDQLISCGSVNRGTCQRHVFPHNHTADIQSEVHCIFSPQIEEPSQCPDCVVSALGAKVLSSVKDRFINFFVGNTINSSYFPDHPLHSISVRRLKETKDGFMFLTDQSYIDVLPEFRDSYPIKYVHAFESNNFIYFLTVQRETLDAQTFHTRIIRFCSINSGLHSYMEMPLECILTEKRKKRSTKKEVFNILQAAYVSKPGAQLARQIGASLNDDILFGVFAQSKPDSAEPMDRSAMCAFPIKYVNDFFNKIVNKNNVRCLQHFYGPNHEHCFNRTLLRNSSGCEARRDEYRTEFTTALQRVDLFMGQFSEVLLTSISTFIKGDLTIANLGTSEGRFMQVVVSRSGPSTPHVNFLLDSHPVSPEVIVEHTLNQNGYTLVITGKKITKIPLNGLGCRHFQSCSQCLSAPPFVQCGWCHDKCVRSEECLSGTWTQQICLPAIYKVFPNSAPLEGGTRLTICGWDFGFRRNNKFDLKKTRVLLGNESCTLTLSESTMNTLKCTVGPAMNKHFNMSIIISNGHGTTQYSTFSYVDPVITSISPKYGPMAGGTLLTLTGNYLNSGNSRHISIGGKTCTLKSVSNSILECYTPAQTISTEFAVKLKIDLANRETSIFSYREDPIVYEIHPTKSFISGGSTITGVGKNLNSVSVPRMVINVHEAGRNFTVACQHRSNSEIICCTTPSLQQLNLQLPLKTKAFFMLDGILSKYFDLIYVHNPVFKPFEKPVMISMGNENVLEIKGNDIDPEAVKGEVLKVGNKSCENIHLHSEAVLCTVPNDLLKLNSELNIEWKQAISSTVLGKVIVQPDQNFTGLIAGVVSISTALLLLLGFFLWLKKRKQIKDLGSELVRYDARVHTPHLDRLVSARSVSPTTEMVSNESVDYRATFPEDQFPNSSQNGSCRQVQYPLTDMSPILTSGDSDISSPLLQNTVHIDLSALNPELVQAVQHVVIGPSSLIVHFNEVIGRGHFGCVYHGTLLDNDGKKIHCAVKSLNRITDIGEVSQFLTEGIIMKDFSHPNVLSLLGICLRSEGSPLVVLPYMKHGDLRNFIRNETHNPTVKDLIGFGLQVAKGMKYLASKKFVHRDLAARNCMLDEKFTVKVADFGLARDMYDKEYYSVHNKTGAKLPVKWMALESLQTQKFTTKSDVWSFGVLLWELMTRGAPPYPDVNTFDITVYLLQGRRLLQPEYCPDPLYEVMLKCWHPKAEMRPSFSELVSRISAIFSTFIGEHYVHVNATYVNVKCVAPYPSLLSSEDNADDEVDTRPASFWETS

## O=C(Nc1ccc(Oc2ccnc(Cl)c2Cl)c(F)c1)c1nc(-c2ccc(F)c(F)c2)cs1 [Compound 51an, N-(4-((2,3-Dichloropyridin-4-yl)oxy)-3-fluorophenyl)-4-(3,4-difluorophenyl)thiazole-2-carboxamide]
[1]
  IC50: 0.00373 ± 0.00062 µM
other
  melting point: 156 to 158 °C
[2]
  IC50: 1.32 ± 0.35 µM
[3]
  IC50: 0.94 ± 0.27 µM
[4]
  IC50: 0.15 ± 0.07 µM
[5]
  IC50: 4.65 ± 0.93 µM
[6]
  IC50: 9.54 ± 1.26 µM
[7]
  IC50: 4.83 ± 0.69 µM

## COc1cc2ncnc(Oc3ccc(NC(=O)c4nc(-c5ccccc5)cs4)cc3F)c2cc1OC [Compound 51o, N-(4-((6,7-Dimethoxyquinazolin-4-yl)oxy)-3-fluorophenyl)-4-phenylthiazole-2-carboxamide]
[1]
  IC50: 0.0296 ± 0.00384 µM
other
  melting point: 115 to 117 °C
[2]
  IC50: 12.2 ± 1.63 µM
[3]
  IC50: 18.7 ± 3.13 µM
[4]
  IC50: 4.23 ± 0.96 µM
[5]
  IC50: 29.6 ± 3.54 µM
[6]
  IC50: 50.3 ± 3.58 µM
[7]
  IC50: 36.6 ± 4.23 µM

## O=C(Nc1ccc(Oc2ccnc3ccsc23)c(F)c1)c1nc(-c2ccc(F)cc2)cs1 [Compound 51r, N-(3-Fluoro-4-(thieno[3,2-b]pyridin-7-yloxy)phenyl)-4-(4-fluorophenyl)thiazole-2-carboxamide]
[1]
  IC50: 0.0353 ± 0.00519 µM
other
  melting point: 223 to 225 °C
[2]
  IC50: 10.5 ± 1.76 µM
[3]
  IC50: 18.3 ± 3.62 µM
[4]
  IC50: 5.02 ± 0.77 µM
[5]
  IC50: 28.9 ± 3.13 µM
[6]
  IC50: 51.2 ± 4.61 µM
[7]
  IC50: 40.6 ± 2.25 µM

## COc1cc2nccc(Oc3ccc(NC(=O)c4ncc(-c5ccc(F)cc5)s4)cc3)c2cc1OC [Compound 51h, N-(4-((6,7-Dimethoxyquinolin-4-yl)oxy)phenyl)-5-(4-fluorophenyl)thiazole-2-carboxamide]
[1]
  IC50: 0.0354 ± 0.00503 µM
other
  melting point: 252 to 254 °C
[2]
  IC50: 16.8 ± 1.58 µM
[3]
  IC50: 22.7 ± 3.32 µM
[4]
  IC50: 5.97 ± 0.98 µM
[5]
  IC50: 34.2 ± 2.82 µM
[6]
  IC50: 50.2 ± 2.89 µM
[7]
  IC50: 42.1 ± 4.35 µM
